Assay: Photostability of avobenzone in combination with solvents (UV absorbance profile before and after 10 MED radiation)
Assay type: physicochemical
Details: avobenzone with the solvent; for Stability of Avobenzone: 10 MED radiation, solar simulator, UV absorbance 290-400 nm on PMMA plates; for Stability of avobenzone-solvent combination (UV absorbance profile after 10 MED radiation vs initial, FIG. 1 to FIG. 6): before and after 10 MED radiation
Description: 10 minimal erythemal dose (MED) is a quantified dose of radiation that is known for causing skin damage. UV screening agents will eventually breakdown into smaller molecule after prolonged exposure to UV radiation. This is a common, expected phenomenon however, some UV screening agents will degrade faster within the time a person is exposed to sunlight. If the UV screening agent degrades, it loses the ability to absorb UV radiations and eventually results in a lower absorption profile, that translate into a lower SPF value.
If the absorption profile of a specimen, prepared from a UV screening agent-solvent combination, measured after a predefined exposure of 10 MED radiation, reads similar to that of its initial readings, then the UV screening agent is said to be stable in that particular combination of solvent.
Method of testing photostability: For each test formulations prepared according to Table-1 to Table-7, 1.80 mg/cm^2 of samples were deposited on PMMA (polymethyl methacrylate) plates and spread evenly using finger cots. Three plates were prepared for each product. The initial UV absorbance profile of each slide was measured with a UV-VIS spectrophotometer in the wavelength range of 290-400 nm. Four readings were taken for each slide. The test slides were then exposed to 10 MED radiation using a Solar Light LS1000R3 solar simulator. The slides were then equilibrated at room temperature for 15 minutes, and the UV absorbance profile post radiation was measured. The readings were then plotted to correlate initial absorbance behavior of the specimens to that of post radiation. Any degradation of the UV screening agent will result in a lower absorbance readings compared to that of the initial absorbance profile.
FIG. 1 to FIG. 6 illustrate graphs plotted based on UV absorbance profile measured before and after an exposure of 10 MED radiation on test specimens comprising combination of avobenzone and solvents selected from Table-8.

Compound	Stability of Avobenzone	Stability of avobenzone-solvent combination (UV absorbance profile after 10 MED radiation vs initial, FIG. 1 to FIG. 6)
Cc1ccc(C(=O)OC(C)c2ccccc2)cc1 (stereo not drawn) [1-Phenylethyl p-toluate]	not stable	
O=C(OCCC1CCCCC1)c1ccccc1 [2-Cyclohexylethyl Benzoate]	not stable	
Cc1ccccc1C(=O)OCCc1ccccc1 [2-Phenylethyl o-toluate]	stable	stable
CCc1ccc(C(=O)OCc2ccccc2)cc1 [Benzyl 4-Ethylbenzoate]	not stable	
O=C(OCc1ccccc1)c1ccccc1 [Benzyl Benzoate]	stable	
O=C(OCc1ccccc1)c1ccccc1O [Benzyl Salicylate]	not stable	
Cc1ccccc1C(=O)OCc1ccccc1 [Benzyl o-toluate]	stable	stable
CCN(CC)C(=O)c1cccc(C)c1 [N,N-Diethyl m-toluamide]	not stable	highly instable
Cc1ccccc1COC(=O)c1ccccc1 [o-Methylbenzyl Benzoate]	not stable	
C12-C15 alkyl benzoate	not stable	highly instable

Results, then the compound that gave them:

Stability of Avobenzone	Stability of avobenzone-solvent combination (UV absorbance profile after 10 MED radiation vs initial, FIG. 1 to FIG. 6)	Compound
not stable	highly instable	CC(CCOC(=O)c1ccccc1)OC(=O)c1ccccc1 (stereo not drawn) [1,3-Butylene glycol Dibenzoate]
not stable		CCC(OC(=O)c1ccccc1)c1ccccc1 (stereo not drawn) [1-Phenylpropyl Benzoate]
not stable		O=C(OCCc1ccccc1)C1CCCCC1 [2-Phenylethyl Cyclohexanoate]
not stable		CCCCCC(=O)OCCc1ccccc1 [2-Phenylethyl Hexanoate]
not stable		CCC(=O)OCCc1ccccc1 [2-Phenylethyl Propionate]
stable		O=C(OCCCc1ccccc1)c1ccccc1 [3-Phenylpropyl Benzoate]
not stable	highly instable	CC(C)(C)c1ccc(C(=O)OCc2ccccc2)cc1 [Benzyl 4-tert-Butylbenzoate]
not stable		Cc1cccc(C(=O)OCc2ccccc2)c1 [Benzyl m-toluate]
not stable	highly instable	O=C(OC1CCCCC1)c1ccccc1 [Cyclohexyl Benzoate]
not stable	highly instable	Cc1ccccc1C(=O)OC1CCCCC1 [Cyclohexyl o-toluate]
stable	stable	O=C(OCCc1ccccc1)c1ccccc1 [Phenethyl benzoate]
not stable	highly instable	CC(COC(=O)c1ccccc1)OC(=O)c1ccccc1 (stereo not drawn) [Propylene glycol Dibenzoate]
not stable		Cc1cccc(COC(=O)c2ccccc2)c1 [m-Methylbenzyl Benzoate]
